Data: patent US9725554B2, “Dendritic polyurea for solubilizing active substances of low solubility” (BASF SE, priority 2009, dated 2017)

How the values were obtained:
[1] = physchem; details: pH 7, aqueous buffer, thermodynamic from solid
Experimental: Then 0.2 g of each active ingredient was weighed into the batch to give a supersaturated solution. […] The mixture was then stirred at room temperature for 72 hours, using a magnetic stirrer. After a rest time of one hour, unsolubilized active ingredient was removed by filtration. The resulting clear or opaque solution was then analyzed for its active ingredient content by means of UV spectroscopy or HPLC.

[2] = Experimental: Then 100 mg of each active ingredient was weighed into the batch to give a supersaturated solution. The mixture was then stirred at room temperature for 24 hours, using a magnetic stirrer. After a rest time of one hour, unsolubilized active ingredient was removed by centrifuging. The resulting clear or opaque solution was then analyzed for its active ingredient content by means of UV spectroscopy.
The solubility was determined as described in procedure 2.

solubility at 72 h [1] [µg/mL]	Solubility of Fipronil in the presence of polymer [2] [µg/mL]	Molecule
< 100	–	Clc1ccccc1C(c1ccccc1)(c1ccccc1)n1ccnc1 [Clotrimazole]
–	6	polyethylene glycol monomethyl ether [PEG monomethyl ether]
